# Test results from ChEMBL document CHEMBL5233271, “Discovering the Mechanisms of Wikstroelide E as a Potential HIV-Latency-Reversing Agent by Transcriptome Profiling” (J Nat Prod, 2021).
# The source made the active and inactive calls. The calls are words filed in the database; no cut-off is given here.
# How the values were obtained:
# J-Lat Tat-GFP Clone A2 [1] = experiment: Upregulation of CLIC1 gene expression in human J-Lat Tat-GFP Clone A2 cells at 10 nM measured after 6 hrs by transcriptome analysis; format: functional, cell-based
# J-Lat Tat-GFP Clone A2 [2] = experiment: Upregulation of CORO1A gene expression in human J-Lat Tat-GFP Clone A2 cells at 10 nM measured after 6 hrs by transcriptome analysis; format: functional, cell-based
# J-Lat Tat-GFP Clone A2 [3] = experiment: Upregulation of DDRGK1 gene expression in human J-Lat Tat-GFP Clone A2 cells at 10 nM measured after 6 hrs by transcriptome analysis; format: functional, cell-based
# J-Lat Tat-GFP Clone A2 [4] = experiment: Upregulation of DGKA gene expression in human J-Lat Tat-GFP Clone A2 cells at 10 nM measured after 6 hrs by transcriptome analysis; format: functional, cell-based
# J-Lat Tat-GFP Clone A2 [5] = experiment: Upregulation of FMNL1 gene expression in human J-Lat Tat-GFP Clone A2 cells at 10 nM measured after 6 hrs by transcriptome analysis; format: functional, cell-based
# J-Lat Tat-GFP Clone A2 [6] = experiment: Upregulation of HSP90B1 gene expression in human J-Lat Tat-GFP Clone A2 cells at 10 nM measured after 6 hrs by transcriptome analysis; format: functional, cell-based
# J-Lat Tat-GFP Clone A2 [7] = experiment: Upregulation of SACM1L gene expression in human J-Lat Tat-GFP Clone A2 cells at 10 nM measured after 6 hrs by transcriptome analysis; format: functional, cell-based
# J-Lat Tat-GFP Clone A2 [8] = experiment: Downregulation of ADI1 gene expression in human J-Lat Tat-GFP Clone A2 cells at 10 nM measured after 6 hrs by transcriptome analysis; format: functional, cell-based
# J-Lat Tat-GFP Clone A2 [9] = experiment: Downregulation of ARID4B gene expression in human J-Lat Tat-GFP Clone A2 cells at 10 nM measured after 6 hrs by transcriptome analysis; format: functional, cell-based
# J-Lat Tat-GFP Clone A2 [10] = experiment: Downregulation of CCNB1 gene expression in human J-Lat Tat-GFP Clone A2 cells at 10 nM measured after 6 hrs by transcriptome analysis; format: functional, cell-based
# J-Lat Tat-GFP Clone A2 [11] = experiment: Downregulation of CHEK1 gene expression in human J-Lat Tat-GFP Clone A2 cells at 10 nM measured after 6 hrs by transcriptome analysis; format: functional, cell-based
# J-Lat Tat-GFP Clone A2 [12] = experiment: Downregulation of CNBP gene expression in human J-Lat Tat-GFP Clone A2 cells at 10 nM measured after 6 hrs by transcriptome analysis; format: functional, cell-based
# J-Lat Tat-GFP Clone A2 [13] = experiment: Downregulation of FLNB gene expression in human J-Lat Tat-GFP Clone A2 cells at 10 nM measured after 6 hrs by transcriptome analysis; format: functional, cell-based
# J-Lat Tat-GFP Clone A2 [14] = experiment: Downregulation of IKBKG gene expression in human J-Lat Tat-GFP Clone A2 cells at 10 nM measured after 6 hrs by transcriptome analysis; format: functional, cell-based
# J-Lat Tat-GFP Clone A2 [15] = experiment: Downregulation of INTS10 gene expression in human J-Lat Tat-GFP Clone A2 cells at 10 nM measured after 6 hrs by transcriptome analysis; format: functional, cell-based
# J-Lat Tat-GFP Clone A2 [16] = experiment: Downregulation of LRSAM1 gene expression in human J-Lat Tat-GFP Clone A2 cells at 10 nM measured after 6 hrs by transcriptome analysis; format: functional, cell-based
# J-Lat Tat-GFP Clone A2 [17] = experiment: Downregulation of PRKCQ gene expression in human J-Lat Tat-GFP Clone A2 cells at 10 nM measured after 6 hrs by transcriptome analysis; format: functional, cell-based
# NH2 [18] = experiment: Activation of NFkappaB signalling pathway in human NH2 cells assessed as increase in IkappaBalpha phosphorylation measured after 1 hr by Western blot analysis; format: cell-based; conditions: filed as activator, dose 0-80 nM
# J-Lat Tat-GFP Clone A2 [19] = experiment: Activation of NFkappaB signalling pathway in human J-Lat Tat-GFP Clone A2 cells assessed as increase in IkappaBalpha phosphorylation measured after 1 hr by Western blot analysis; format: cell-based; conditions: filed as activator, dose 0-80 nM
# NH2 [20] = experiment: Activation of NFkappaB signalling pathway in human NH2 cells assessed as increase in IkappaBalpha phosphorylation at 40 nM by Western blot analysis; format: cell-based; conditions: filed as activator, time 5-120 min, TDE = time-dependent effect
# J-Lat Tat-GFP Clone A2 [21] = experiment: Activation of NFkappaB signalling pathway in human J-Lat Tat-GFP Clone A2 cells assessed as increase in IkappaBalpha phosphorylation at 40 nM by Western blot analysis; format: cell-based; conditions: filed as activator, time 5-120 min, TDE = time-dependent effect
# [22] = test system: Human immunodeficiency virus; experiment: HIV-latency reversing activity in human NH2 cells at 10 nM pretreated with BAY11-7082 for 1 hr followed by compound addition and measured after 12 hrs by luciferase based assay; format: functional, organism-based
# NH2 [23] = experiment: Activation of NFkappaB signalling pathway in human NH2 cells assessed as increase in translocation of p65 from cytoplasm to nucleus at 40 nM pretreated with PKC inhibitor, Go6983 for 1 hr followed by compound addition and measured after 12 hrs by Western blot analysis; format: cell-based
# [24] = test system: Human immunodeficiency virus; experiment: HIV-latency reversing activity in human NH2 cells at 10 nM pretreated with JAK inhibitor, -decernotinib for 1 hr followed by compound addition and measured after 12 hrs by luciferase based assay; format: functional, organism-based
# [25] = Cytotoxicity against human J-Lat 2D10 cells at 1 uM incubated for 72 hrs; format: toxicity, cell-based
# [26] = Cytotoxicity against human NH1 cells at 1 uM incubated for 72 hrs; format: toxicity, cell-based; conditions: nh1, 72 h
# [27] = Cytotoxicity against human NH2 cells at 1 uM incubated for 72 hrs; format: toxicity, cell-based; conditions: nh2, 72 h
smiles,measurement,setting,value
C=C(C)[C@]12C[C@@H](C)[C@@]34O[C@]5(CCCCCCC[C@H](C)[C@H]6[C@H](C)C(=O)[C@@](O)([C@H](O)[C@@]7(CO)O[C@H]7[C@H]3[C@H]1O5)[C@@H]64)O2,Activity,J-Lat Tat-GFP Clone A2 [1],Active
same,Activity,J-Lat Tat-GFP Clone A2 [2],Active
same,Activity,J-Lat Tat-GFP Clone A2 [3],Active
same,Activity,J-Lat Tat-GFP Clone A2 [4],Active
same,Activity,J-Lat Tat-GFP Clone A2 [5],Active
same,Activity,J-Lat Tat-GFP Clone A2 [6],Active
same,Activity,J-Lat Tat-GFP Clone A2 [7],Active
same,Activity,J-Lat Tat-GFP Clone A2 [8],Active
same,Activity,J-Lat Tat-GFP Clone A2 [9],Active
same,Activity,J-Lat Tat-GFP Clone A2 [10],Active
same,Activity,J-Lat Tat-GFP Clone A2 [11],Active
same,Activity,J-Lat Tat-GFP Clone A2 [12],Active
same,Activity,J-Lat Tat-GFP Clone A2 [13],Active
same,Activity,J-Lat Tat-GFP Clone A2 [14],Active
same,Activity,J-Lat Tat-GFP Clone A2 [15],Active
same,Activity,J-Lat Tat-GFP Clone A2 [16],Active
same,Activity,J-Lat Tat-GFP Clone A2 [17],Active
same,Activity,NH2 [18],Dose-Dependent Effect
same,Activity,J-Lat Tat-GFP Clone A2 [19],Dose-Dependent Effect
same,Activity,NH2 [20],Tde
same,Activity,J-Lat Tat-GFP Clone A2 [21],Tde
same,Activity,[22],inactive
same,Activity,NH2 [23],inactive
same,Activity,[24],inactive
same,Activity,[25],Non-Toxic
same,Activity,[26],Non-Toxic
same,Activity,[27],Non-Toxic
